Measurements from the NIST ThermoML archive (doi:10.1021/je050052+).

Experiment: excess molar enthalpy (molar enthalpy of mixing); xn = mol fraction of the nth substance listed
Conditions: Liquid, Flow calorimetry

COC(=O)OC [dimethyl carbonate] + CO
Conditions | excess molar enthalpy [kcal/mol]
298.15 K, 1000 kPa, x2 = 0.25 | 0.2729
298.15 K, 1000 kPa, x2 = 0.3 | 0.2933
298.15 K, 1000 kPa, x2 = 0.35 | 0.3075
298.15 K, 1000 kPa, x2 = 0.4 | 0.315
298.15 K, 1000 kPa, x2 = 0.45 | 0.3163
298.15 K, 1000 kPa, x2 = 0.5 | 0.313
298.15 K, 1000 kPa, x2 = 0.55 | 0.3034
298.15 K, 1000 kPa, x2 = 0.6 | 0.2901
298.15 K, 1000 kPa, x2 = 0.65 | 0.2735
298.15 K, 1000 kPa, x2 = 0.7 | 0.2508
298.15 K, 1000 kPa, x2 = 0.75 | 0.2229
298.15 K, 1000 kPa, x2 = 0.8 | 0.1931
313.15 K, 100 kPa, x2 = 0.048 | 0.0748
313.15 K, 100 kPa, x2 = 0.1 | 0.1539
313.15 K, 100 kPa, x2 = 0.1492 | 0.2119
313.15 K, 100 kPa, x2 = 0.2014 | 0.2621
313.15 K, 100 kPa, x2 = 0.2506 | 0.2976
313.15 K, 100 kPa, x2 = 0.302 | 0.3238
313.15 K, 100 kPa, x2 = 0.3503 | 0.341
313.15 K, 100 kPa, x2 = 0.4001 | 0.3506
313.15 K, 100 kPa, x2 = 0.451 | 0.3535
313.15 K, 100 kPa, x2 = 0.4985 | 0.3472
313.15 K, 100 kPa, x2 = 0.5501 | 0.3409
313.15 K, 100 kPa, x2 = 0.6014 | 0.3255
313.15 K, 100 kPa, x2 = 0.6489 | 0.3073
313.15 K, 100 kPa, x2 = 0.6987 | 0.2839
313.15 K, 100 kPa, x2 = 0.7499 | 0.254
313.15 K, 100 kPa, x2 = 0.7992 | 0.2162
313.15 K, 100 kPa, x2 = 0.851 | 0.1699
313.15 K, 100 kPa, x2 = 0.95 | 0.0561
313.15 K, 1000 kPa, x2 = 0.0477 | 0.08505
313.15 K, 1000 kPa, x2 = 0.0994 | 0.158
313.15 K, 1000 kPa, x2 = 0.1484 | 0.2155
313.15 K, 1000 kPa, x2 = 0.2003 | 0.2637
313.15 K, 1000 kPa, x2 = 0.2493 | 0.2969
313.15 K, 1000 kPa, x2 = 0.3006 | 0.3229
313.15 K, 1000 kPa, x2 = 0.3487 | 0.3403
313.15 K, 1000 kPa, x2 = 0.3985 | 0.3519
313.15 K, 1000 kPa, x2 = 0.4493 | 0.3546
313.15 K, 1000 kPa, x2 = 0.5006 | 0.3496
313.15 K, 1000 kPa, x2 = 0.5485 | 0.3404
313.15 K, 1000 kPa, x2 = 0.5998 | 0.3247
313.15 K, 1000 kPa, x2 = 0.6504 | 0.3053
313.15 K, 1000 kPa, x2 = 0.7001 | 0.2815
313.15 K, 1000 kPa, x2 = 0.7512 | 0.2509
313.15 K, 1000 kPa, x2 = 0.8005 | 0.2149
313.15 K, 1000 kPa, x2 = 0.8501 | 0.1691
313.15 K, 1000 kPa, x2 = 0.9497 | 0.0534
313.15 K, 10000 kPa, x2 = 0.0477 | 0.08818
313.15 K, 10000 kPa, x2 = 0.0994 | 0.1621
313.15 K, 10000 kPa, x2 = 0.1484 | 0.2188
313.15 K, 10000 kPa, x2 = 0.2003 | 0.2659
313.15 K, 10000 kPa, x2 = 0.2493 | 0.2989
313.15 K, 10000 kPa, x2 = 0.3006 | 0.3252
313.15 K, 10000 kPa, x2 = 0.3487 | 0.3416
313.15 K, 10000 kPa, x2 = 0.3985 | 0.3512
313.15 K, 10000 kPa, x2 = 0.4493 | 0.3536
313.15 K, 10000 kPa, x2 = 0.5006 | 0.3509
313.15 K, 10000 kPa, x2 = 0.5485 | 0.3423
313.15 K, 10000 kPa, x2 = 0.5998 | 0.3285
313.15 K, 10000 kPa, x2 = 0.6504 | 0.3088
313.15 K, 10000 kPa, x2 = 0.7001 | 0.2842
313.15 K, 10000 kPa, x2 = 0.7512 | 0.2511
313.15 K, 10000 kPa, x2 = 0.8005 | 0.2158
313.15 K, 10000 kPa, x2 = 0.8501 | 0.1733
313.15 K, 10000 kPa, x2 = 0.9497 | 0.0561
328.15 K, 1000 kPa, x2 = 0.05 | 0.09171
328.15 K, 1000 kPa, x2 = 0.1 | 0.1733
328.15 K, 1000 kPa, x2 = 0.15 | 0.2349
328.15 K, 1000 kPa, x2 = 0.2 | 0.2867
328.15 K, 1000 kPa, x2 = 0.25 | 0.3264
328.15 K, 1000 kPa, x2 = 0.3 | 0.3555
328.15 K, 1000 kPa, x2 = 0.35 | 0.375
328.15 K, 1000 kPa, x2 = 0.4 | 0.3883
328.15 K, 1000 kPa, x2 = 0.45 | 0.3934
328.15 K, 1000 kPa, x2 = 0.5 | 0.3894
328.15 K, 1000 kPa, x2 = 0.55 | 0.3796
328.15 K, 1000 kPa, x2 = 0.6 | 0.3638
328.15 K, 1000 kPa, x2 = 0.65 | 0.3412
328.15 K, 1000 kPa, x2 = 0.7 | 0.3139
328.15 K, 1000 kPa, x2 = 0.75 | 0.279
328.15 K, 1000 kPa, x2 = 0.8 | 0.2383
328.15 K, 1000 kPa, x2 = 0.8509 | 0.1886
328.15 K, 1000 kPa, x2 = 0.95 | 0.0625

COC(=O)OC [dimethyl carbonate] + CC(C)O
Conditions | excess molar enthalpy [kcal/mol]
298.15 K, 1000 kPa, x1 = 0.05 | 0.1201
298.15 K, 1000 kPa, x1 = 0.1 | 0.222
298.15 K, 1000 kPa, x1 = 0.15 | 0.3028
298.15 K, 1000 kPa, x1 = 0.2 | 0.3695
298.15 K, 1000 kPa, x1 = 0.25 | 0.4209
298.15 K, 1000 kPa, x1 = 0.3 | 0.4599
298.15 K, 1000 kPa, x1 = 0.35 | 0.4899
298.15 K, 1000 kPa, x1 = 0.4 | 0.5097
298.15 K, 1000 kPa, x1 = 0.45 | 0.5212
298.15 K, 1000 kPa, x1 = 0.5 | 0.5264
298.15 K, 1000 kPa, x1 = 0.55 | 0.5191
298.15 K, 1000 kPa, x1 = 0.6 | 0.5048
298.15 K, 1000 kPa, x1 = 0.65 | 0.4805
298.15 K, 1000 kPa, x1 = 0.7 | 0.4459
298.15 K, 1000 kPa, x1 = 0.75 | 0.4012
298.15 K, 1000 kPa, x1 = 0.8 | 0.3425
298.15 K, 1000 kPa, x1 = 0.95 | 0.1068
313.15 K, 100 kPa, x1 = 0.0483 | 0.1117
313.15 K, 100 kPa, x1 = 0.0998 | 0.2227
313.15 K, 100 kPa, x1 = 0.1507 | 0.3146
313.15 K, 100 kPa, x1 = 0.2011 | 0.388
313.15 K, 100 kPa, x1 = 0.2509 | 0.4473
313.15 K, 100 kPa, x1 = 0.3002 | 0.4924
313.15 K, 100 kPa, x1 = 0.3489 | 0.5277
313.15 K, 100 kPa, x1 = 0.4005 | 0.5535
313.15 K, 100 kPa, x1 = 0.4515 | 0.5679
313.15 K, 100 kPa, x1 = 0.4986 | 0.5718
313.15 K, 100 kPa, x1 = 0.5485 | 0.5651
313.15 K, 100 kPa, x1 = 0.6011 | 0.5502
313.15 K, 100 kPa, x1 = 0.6498 | 0.5244
313.15 K, 100 kPa, x1 = 0.7012 | 0.4887
313.15 K, 100 kPa, x1 = 0.7488 | 0.4419
313.15 K, 100 kPa, x1 = 0.8486 | 0.3137
313.15 K, 100 kPa, x1 = 0.9007 | 0.2235
313.15 K, 100 kPa, x1 = 0.9492 | 0.1156
313.15 K, 1000 kPa, x1 = 0.0483 | 0.1108
313.15 K, 1000 kPa, x1 = 0.0998 | 0.2231
313.15 K, 1000 kPa, x1 = 0.1507 | 0.3136
313.15 K, 1000 kPa, x1 = 0.201 | 0.3871
313.15 K, 1000 kPa, x1 = 0.2508 | 0.4465
313.15 K, 1000 kPa, x1 = 0.3 | 0.4932
313.15 K, 1000 kPa, x1 = 0.3487 | 0.5283
313.15 K, 1000 kPa, x1 = 0.4003 | 0.5534
313.15 K, 1000 kPa, x1 = 0.4513 | 0.5642
313.15 K, 1000 kPa, x1 = 0.4984 | 0.5678
313.15 K, 1000 kPa, x1 = 0.5516 | 0.5622
313.15 K, 1000 kPa, x1 = 0.6009 | 0.5476
313.15 K, 1000 kPa, x1 = 0.6497 | 0.5221
313.15 K, 1000 kPa, x1 = 0.7011 | 0.486
313.15 K, 1000 kPa, x1 = 0.7487 | 0.4405
313.15 K, 1000 kPa, x1 = 0.8486 | 0.3109
313.15 K, 1000 kPa, x1 = 0.9007 | 0.2209
313.15 K, 1000 kPa, x1 = 0.9491 | 0.1173
313.15 K, 10000 kPa, x1 = 0.0517 | 0.1095
313.15 K, 10000 kPa, x1 = 0.0992 | 0.212
313.15 K, 10000 kPa, x1 = 0.1499 | 0.303
313.15 K, 10000 kPa, x1 = 0.2 | 0.3768
313.15 K, 10000 kPa, x1 = 0.2497 | 0.4355
313.15 K, 10000 kPa, x1 = 0.2988 | 0.4813
313.15 K, 10000 kPa, x1 = 0.3508 | 0.5177
313.15 K, 10000 kPa, x1 = 0.3989 | 0.5407
313.15 K, 10000 kPa, x1 = 0.4499 | 0.5557
313.15 K, 10000 kPa, x1 = 0.5003 | 0.5598
313.15 K, 10000 kPa, x1 = 0.5501 | 0.5537
313.15 K, 10000 kPa, x1 = 0.5995 | 0.5393
313.15 K, 10000 kPa, x1 = 0.6515 | 0.5131
313.15 K, 10000 kPa, x1 = 0.6998 | 0.48
313.15 K, 10000 kPa, x1 = 0.7507 | 0.4325
313.15 K, 10000 kPa, x1 = 0.8011 | 0.3729
313.15 K, 10000 kPa, x1 = 0.8509 | 0.3054
313.15 K, 10000 kPa, x1 = 0.9001 | 0.2228
313.15 K, 10000 kPa, x1 = 0.9488 | 0.1259
328.15 K, 1000 kPa, x1 = 0.05 | 0.1293
328.15 K, 1000 kPa, x1 = 0.1 | 0.2339
328.15 K, 1000 kPa, x1 = 0.15 | 0.3279
328.15 K, 1000 kPa, x1 = 0.2 | 0.4052
328.15 K, 1000 kPa, x1 = 0.25 | 0.4674
328.15 K, 1000 kPa, x1 = 0.3 | 0.5156
328.15 K, 1000 kPa, x1 = 0.35 | 0.5557
328.15 K, 1000 kPa, x1 = 0.4 | 0.5822
328.15 K, 1000 kPa, x1 = 0.45 | 0.5962
328.15 K, 1000 kPa, x1 = 0.5 | 0.6034
328.15 K, 1000 kPa, x1 = 0.55 | 0.5992
328.15 K, 1000 kPa, x1 = 0.6 | 0.5851
328.15 K, 1000 kPa, x1 = 0.65 | 0.5559
328.15 K, 1000 kPa, x1 = 0.7 | 0.5128
328.15 K, 1000 kPa, x1 = 0.75 | 0.4679
328.15 K, 1000 kPa, x1 = 0.8 | 0.4034
328.15 K, 1000 kPa, x1 = 0.85 | 0.3257
328.15 K, 1000 kPa, x1 = 0.9 | 0.2299
328.15 K, 1000 kPa, x1 = 0.95 | 0.1163
